We go through one compound from ChEMBL document CHEMBL2401664, “De novo tyrosinase inhibitor: 4-(6,7-dihydro-5H-indeno[5,6-d]thiazol-2-yl)benzene-1,3-diol (MHY1556)” (Bioorg Med Chem Lett, 2013).

Series [1] concerns B16-F10. The series is described as follows: Inhibition of alphaMSH-induced melanin production in mouse B16F10 cells at 0.05 uM after 48 hrs by melanin content assay (reference value: 163.78 %). The class given is functional. As to conditions: B16-F10, 48 h.
Series [2] has as its system B16-F10. The series is described as follows: Inhibition of alphaMSH-induced melanin production in mouse B16F10 cells at 0.2 uM after 48 hrs by melanin content assay (reference value: 163.78 %). The series is classed as functional. As to conditions: B16-F10, 48 h.
In series [3] the test system is B16-F10. The series is described as follows: Inhibition of alphaMSH-induced melanin production in mouse B16F10 cells after 48 hrs by melanin content assay. The series is classed as functional, cell-based.
The target in series [4] is T1, Tyrosinase (Mus musculus) (UniProt P11344).
T1 sequence (whole entry): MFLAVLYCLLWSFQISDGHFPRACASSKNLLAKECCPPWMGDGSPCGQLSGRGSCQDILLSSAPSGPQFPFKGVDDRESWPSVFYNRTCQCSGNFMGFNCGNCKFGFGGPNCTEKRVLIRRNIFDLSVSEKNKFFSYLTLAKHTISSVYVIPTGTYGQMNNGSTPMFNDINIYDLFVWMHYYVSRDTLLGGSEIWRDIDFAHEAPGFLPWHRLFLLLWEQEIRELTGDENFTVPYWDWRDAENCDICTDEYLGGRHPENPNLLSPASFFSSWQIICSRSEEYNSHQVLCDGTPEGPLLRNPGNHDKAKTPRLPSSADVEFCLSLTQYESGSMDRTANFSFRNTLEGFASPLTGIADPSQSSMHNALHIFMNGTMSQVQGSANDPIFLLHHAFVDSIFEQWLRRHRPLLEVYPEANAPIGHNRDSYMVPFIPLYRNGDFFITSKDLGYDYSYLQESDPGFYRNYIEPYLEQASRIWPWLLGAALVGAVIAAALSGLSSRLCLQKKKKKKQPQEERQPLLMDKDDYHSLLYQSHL
The series is described as follows: Inhibition of tyrosinase in mouse B16F10 cells assessed as L-DOPA oxidation at 0.2 uM after 24 hrs by ELISA (reference value: […] %). The series is classed as cell-based. As to conditions: B16-F10. On the technique in general: ELISA stands for enzyme-linked immunosorbent assay.

Series [5] has as its target T1, Tyrosinase (Mus musculus). The series is described as follows: Inhibition of tyrosinase in mouse B16F10 cells assessed as L-DOPA oxidation at 0.1 uM after 24 hrs by ELISA (reference value: […] %). The class given is cell-based. As to conditions: B16-F10.
Series [6] addresses T2, Tyrosinase (Agaricus bisporus) (UniProt O42713).
T2 sequence (whole entry): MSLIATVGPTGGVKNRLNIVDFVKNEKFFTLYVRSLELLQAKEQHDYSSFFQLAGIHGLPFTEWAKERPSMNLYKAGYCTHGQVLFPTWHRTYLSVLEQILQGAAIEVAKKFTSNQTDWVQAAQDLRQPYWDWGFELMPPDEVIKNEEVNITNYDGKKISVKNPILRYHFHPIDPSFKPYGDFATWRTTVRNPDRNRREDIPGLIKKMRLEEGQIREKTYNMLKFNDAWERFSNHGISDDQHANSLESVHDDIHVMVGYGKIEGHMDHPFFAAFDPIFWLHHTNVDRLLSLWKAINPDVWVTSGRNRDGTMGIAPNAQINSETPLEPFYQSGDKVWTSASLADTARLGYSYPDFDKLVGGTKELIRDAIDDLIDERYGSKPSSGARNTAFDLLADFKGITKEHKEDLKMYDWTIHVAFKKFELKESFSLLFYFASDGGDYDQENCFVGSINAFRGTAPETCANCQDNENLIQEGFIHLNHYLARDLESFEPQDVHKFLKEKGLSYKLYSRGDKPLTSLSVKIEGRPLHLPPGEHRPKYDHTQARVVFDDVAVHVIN
Description: Inhibition of mushroom tyrosinase using L-tyrosine as substrate assessed as amount of dopachrome produced at 0.5 uM after 30 mins by spectrophotometry.

Series [7] has as its target T2, Tyrosinase (Agaricus bisporus). The series is described as follows: Inhibition of mushroom tyrosinase using L-tyrosine as substrate assessed as amount of dopachrome produced at 1 uM after 30 mins by spectrophotometry.
For series [8], the system named is B16-F10. Description: Inhibition of alphaMSH-induced melanin production in mouse B16F10 cells at 0.1 uM after 48 hrs by melanin content assay (reference value: 163.78 %). The class given is functional. The settings on record: B16-F10, 48 h.
Series [9] in a line: Cytotoxicity against mouse B16F10 cells assessed as cell viability at 40 uM after 48 hrs by MTT assay. The class given is cell-based, B16-F10. As to conditions: read-out: Activity. (In general: Tetrazolium assays rely on reduction of a dye to a coloured formazan, in cell work by metabolically active cells.)
A short description of series [10]: Cytotoxicity against mouse B16F10 cells assessed as cell viability at 5 uM after 48 hrs by MTT assay. The class given is cell-based, B16-F10. The settings on record: read-out: Activity.
Series [11] addresses T2, Tyrosinase (Agaricus bisporus). The series is described as follows: Inhibition of mushroom tyrosinase using L-tyrosine as substrate assessed as amount of dopachrome produced at 0.1 uM after 30 mins by spectrophotometry.
Series [12] shares this target. The series is described as follows: Inhibition of mushroom tyrosinase using L-tyrosine as substrate assessed as amount of dopachrome produced at 0.8 uM after 30 mins by spectrophotometry.
The target of series [13] is T3, Tyrosinase (Agaricus bisporus, UniProt O42713).
T3 sequence (O42713 whole entry): T2 sequence (whole entry)
Description: Inhibition of mushroom tyrosinase using L-tyrosine as substrate assessed as amount of dopachrome produced after 30 mins by spectrophotometry.

A short description of series [14]: Cytotoxicity against mouse B16F10 cells assessed as cell viability at 20 uM after 48 hrs by MTT assay. The series is classed as cell-based, B16-F10. The settings on record: read-out: Activity.
The target of series [15] is T1, Tyrosinase (Mus musculus). Description: Inhibition of tyrosinase in mouse B16F10 cells assessed as L-DOPA oxidation after 24 hrs by ELISA. The series is classed as cell-based. The settings on record: B16-F10.
For series [16], the system named is B16-F10. The series is described as follows: Inhibition of alphaMSH-induced melanin production in mouse B16F10 cells at 2 uM after 48 hrs by melanin content assay (reference value: 163.78 %). The settings on record: B16-F10, 48 h. The class given is functional.
The nature of series [17]: Cytotoxicity against mouse B16F10 cells assessed as cell viability at 2 uM after 48 hrs by MTT assay. The class given is cell-based, B16-F10. The settings on record: read-out: Activity.
The nature of series [18]: Cytotoxicity against mouse B16F10 cells assessed as cell viability at 10 uM after 48 hrs by MTT assay. The series is classed as cell-based, B16-F10. As to conditions: read-out: Activity.
Series [19] has as its target T2, Tyrosinase (Agaricus bisporus). Description: Inhibition of mushroom tyrosinase using L-tyrosine as substrate assessed as amount of dopachrome produced at 2 uM after 30 mins by spectrophotometry.

For `Oc1ccc(-c2nc3cc4c(cc3s2)CCC4)c(O)c1`, in series [1], the inhibition (usually the drop in the measured response relative to a control, in per cent) at 0.05 µM stood at 121%. For the same compound, the inhibition at 0.2 µM in [2] stood at 94.5%. The inhibition result was “Dose-dependent effect” in series [3]; 109% in series [4]; 133% in series [5]; 56.5% in series [6]; 73.6% in series [7]; 22.2% in series [11]. In addition, the inhibition in series [12] was 68.3%; in series [15], “Dose-dependent effect”; in series [19] it was 83.5%. Also, the inhibition at 0.1 µM in series [8] worked out at 101%. Besides, the viability at 48 h, 40 µM in [9] came to 88.4%. Moreover, the viability at 48 h, 5 µM in series [10] worked out at 95%. Besides, the IC50 (commonly the concentration that inhibits the measured activity by half) in series [13] amounted to 500 nM. Further, in [14], the viability at 48 h, 20 µM was determined as 95.6%. Further, the inhibition at 2 µM in series [16] worked out at 88.8%. Also, the viability at 48 h, 2 µM in [17] stood at 97.9%. Further, the viability at 48 h, 10 µM in series [18] was found to be 98.1%.
